Assay results published in patent US6399654B1, “Biflavanoids and derivatives thereof as antiviral agents” (priority 1995, dated 2002).
Converted amounts (≈) assume the structure as drawn. Where two headings read alike, the source gives them in different places. Marks after values point to notes of the source that are not given here.

Experiments:
[1] = tested on: Influenza A (A/NWS/33 (H1N1)); experiment: Influenza A virus infection in mice; type: in vivo, BALB/c mice
Protocol: Animals: Female 13-15 g specific pathogen-free BALB/c mice were obtained form Simonsen Laboratories (Gilroy, Calif.). They were quarantined 24 h prior to use, and maintained on Wayne Lab Blox and tap water. After being infected, their drinking water contained 0.006% oxytetracycline (Pfizer, New York, N.Y.) to control possible secondary bacterial infections.
Virus: A/NWS/33 (H1N1) was obtained from K. W. Cochran, Univ. of Michigan (Ann Arbor, Mich.). A virus pool was prepared in MDCK cells; this was titrated in mice, ampuled, and stored at −80° C. until used.
Compounds: Robustaflavone was stored at room temperature until used. Ribavirin, used as a positive control, was obtained from ICN Pharmaceuticals (Costa Mesa, Calif.). Vehicles considered included DMSO (Sigma Chemical Co., St. Louis, Mo.), DMF (Sigma), PEG M. W. 200 (Aldrich Chemical Co. Milwaukee, Wis.), 0.4% CMC (Sigma) and 1-methyl-2-pyrrolidinone (MPD, Aldrich).
Arterial Oxygen Saturation (SaO2) Determinations: SaO2 was determined using the Ohmeda Blox 3740 pulse oximeter (Ohmeda, Louisville, Ohio)). The ear probe attachment was used, the probe placed on the thigh of the animal, with the slow instrument mode selected. Readings were made after a 30 second stabilization time on each animal. Use of this device for measuring effects of influenza virus on arterial oxygen saturation have been described.^72
Lung Virus Determinations: Each mouse lung was homogenized and varying dilutions assayed in triplicate for infectious virus in MDCK cells as described previously.^73
4. Effect of robustaflavone in CMC or in DMSO on influenza virus infection in mice. In the study with CMC, robustaflavone was used in dosages of 200 and 100 mg/kg/day; using DMSO vehicle, the dosages were 75 and 37.5 mg/kg/day, with the compound administered i.p. twice daily for 5 days beginning 4 h pre-virus exposure. The mice were used in each dose to monitor effects on SaO2 and death; from an additional group of similarly infected and treated mice, 3 animals were killed on days 3, 5, 7 and 9 to assay for lung score (0=normal, 4=maximal consolidation), weight, and virus titer. Three to four mice were used as toxicity controls, which were weighed prior to treatment and again 18 h after treatment termination, and deaths noted daily. […] Three sets of virus controls were used: Infected-untreated, infected-treated with CMC only, and infected-treated with DMSO only. Twenty animals were used in each of these control groups to monitor SaO2 and death, with 3 additional mice taken in parallel with treated animals to determine effects on lung consolidation and virus titer. Two sets of normal controls were used; one group of three mice was weighed and held in parallel with the toxicity controls. From the second group three mice were killed on days 3 and 9 for comparison of lung score and weight.
Statistical Evaluation: Increase in survivor number was evaluated using chi square analysis with Yates' correction. Mean survival time increases, virus titer and SaO2 value differences were analyzed by t-test. Lung consolidation scores were evaluated by ranked sum analysis.

Hepatitis B Virus (HBV) = experiment: HBV proteins and nucleic acids in 2.2.15 cells; type: cell-based; conditions: Day 9, 2.2.15 cells; robustaflavone @10 μM
Protocol: Values of HBV proteins were determined by semi-quantitative EIA performed as previously described.^83 For the EIA analyses, test samples-were diluted (2- to 10-fold) so that the assay values produced were within the linear dynamic range of the EIA assays. Standard curves using serial dilutions of positive assay controls were included in each set of EIA analyses. HBV surface antigen ([…]), preSI protein, and HBc antigen ([…]) are released as extracellular products and were therefore analyzed in culture medium obtained 24 h following the last treatment dose of oligonucleotides or 2′, 3′-ddc. HBV core antigen (HBcAg) is an intracellular viral protein and was assayed in cell extracts produced by Triton-X-100 lysis.^83
Cultures for HBV RNA were maintained on 6-well plates, cultures for HBV virion DNA analyses were maintained on either 96- or 24-well plates, and cultures for all other HBV parameters were maintained on 24-well plates.
The concentrations of antiviral agents used in these studies approximates the EC50 values of the individual agents against intracellular HBV DNA replication intermediates (HBV RI). Cultures were treated with the indicated agents for 9 days using standard procedures. Values reported are the levels of the indicated HBV markers at the end of the treatment period (“DAY 9”) expressed as a percentage (±standard deviation (S.D.) of the average levels in the control cultures at the beginning of the treatment period (“DAY 0”). The method of expression permits an analysis of the variation of the HBV markers in the untreated (control) cultures over the course of the treatment period. HBV nucleic acid levels were measured by standard blot hydridization (dot, Southern, or Northern). HBV protein levels were measured by standard semi-quantitative EIA methods. Cultures for HBV RNA were maintained in 6-well culture plates. The levels of each of two major classes of HBV RNA transcripts are listed separately. Cultures for all other HBV markers were maintained in 24-well culture plates. For each treatment, a total of 4 separate cultures were used for the analysis of each HBV marker at both DAY 0 and DAY 9.
Determination of Mechanism of Action. Measurements of intracellular and extracellular HBV DNA, 3.6 kb and 2.1 kb mRNA fragments, and HBsAg, HBeAg and HBcAg protein markers were conducted as previously described (93).

[2] = tested on: Respiratory Syncytial Virus; experiment: microbe, parasite or virus in culture; type: cell-based; conditions: human respiratory syncytial virus, MA104; read-out: Neutral Red EC50
in vitro = conditions: African green monkey
HIV-1 (strain LAV-1) = experiment: microbe, parasite or virus in culture; type: cell-based
[3] = tested on: Madin Darby canine kidney (MDCK) cells; conditions: Influenza A (H3N2) test
HCMV = HCMV CPE inhibition in HFF cells
[4] = tested on: Respiratory Syncytial Virus; experiment: microbe, parasite or virus in culture; type: cell-based; conditions: human respiratory syncytial virus, MA104; read-out: CPE Inhibition EC50
[5] = robustaflavone in 0.4% CMC, 200 mg/kg/day i.p. bid × 5
[6] = robustaflavone in 0.4% CMC, 1005 mg/kg/day (so in the source) i.p. bid × 5
[7] = robustaflavone in DMSO, 37.5 mg/kg/day i.p. bid × 5
[8] = robustaflavone in DMSO, 75 mg/kg/day i.p. bid × 5

O=c1cc(-c2ccc(O)c(-c3c(O)cc4oc(-c5ccc(O)cc5)cc(=O)c4c3O)c2)oc2cc(O)cc(O)c12 [Robustaflavone (3), robustaflavone]
Infected, Treated MST [1, 5]: 11.1 days | Infected, Treated Mean SaO2 [1, 5]: 84.6% | Infected, Treated Surv/Total [1, 5]: 0/9 | Infected, Treated MST [1, 6]: 9.8 days | Infected, Treated Mean SaO2 [1, 6]: 85.1** % | Infected, Treated Surv/Total [1, 6]: 0/10 | Infected, Treated MST [1, 7]: 8.0 days | Infected, Treated Mean SaO2 [1, 7]: 73.8% | Infected, Treated Surv/Total [1, 7]: 0/10 | Infected, Treated MST (mean survival time) [1, 8]: 3.2 days | Infected, Treated Mean SaO2 (mean of days 3-10) [1, 8]: 70.6% | Infected, Treated Surv/Total ([1]; robustaflavone in DMSO, 75 mg/kg/day i.p. bid × 5 beg −4 h pre-virus): 0/9 | Viral Antigens: HBeAg (Hepatitis B Virus (HBV)): 86 ± 6 % of Day 0 Control | Viral Antigens: HBsAg (Hepatitis B Virus (HBV)): 97 ± 6 % of Day 0 Control | Viral Antigens: HbcAG (Hepatitis B Virus (HBV)): 138 ± 8 % of Day 0 Control | Viral DNA: Extracellular DNA (Hepatitis B Virus (HBV)): 1 ± 1 % of Day 0 Control | Viral DNA: Intracellular DNA (Hepatitis B Virus (HBV)): 5 ± 1 % of Day 0 Control | Viral mRNA: 3.6 kb and 2.1 kb mRNA (first column) (Hepatitis B Virus (HBV)): 93 ± 10 % of Day 0 Control | EC50 [2]: ~56 µg/mL (≈ 104 µM) | IC50 (in vitro; CPE Inhibition IC50 (cytotoxic), Respiratory Syncytial Virus test): 56 µg/mL (≈ 104 µM) | IC50 (in vitro; CPI Inhibition IC50 (cytotoxic), Parainfluenza Type 3 Virus test): 56 µg/mL (≈ 104 µM) | anti-HIV-1 activity in PBM cells (in words) (HIV-1 (strain LAV-1)): inactive | EC50 (HIV-1 (strain LAV-1); Human immunodeficiency virus 1, PBMC, human PBM cells infected with HIV-1 (strain LAV), read-out: Ant-HIV-1 in PBM cells EC50): > 100 µM | Selective Index (SI) (HIV-1 (strain LAV-1); PBM cells): <1 | CPE Inhibition IC50 (cytotoxic) [3]: ˜32 ug/mL | HCMV SI (CC50/EC50) (HCMV; HFF Cells): >1.8 | EC50 (HCMV; Human betaherpesvirus 5, HFF, read-out: HCMV CPE Inhibition EC50): 54.8 µg/mL (≈ 102 µM) | EC50 [4]: > 100 µg/mL
